Data from US20140212437A1, “METHODS AND COMPOSITIONS FOR TREATING ATRIAL FIBRILLATION” (THE REGENTS OF THE UNIVERSITY OF MICHIGAN, priority 2013, published 2014).
“Also recorded” adds a separate entry of the source.

Key:
FOXO1 = test: Western blot of FOXO1 phosphorylation; assay type: cell-based, rat
Method: (§1) Cell Treatment: Isolated adult rat cardiac myocytes were treated with FCM or TGF-β1 (R and D systems, Minneapolis, Minn.) for 3 days in serum free medium. For PI3K pathway inhibition cells were pretreated (30 min) with 10 μM […] (Cayman Chemicals, Ann Arbor) before the treatment with TGF-β1.
Western blotting: Control and treated cardiac myocytes were washed in cold PBS, lysed directly in the modified loading buffer (25 mmol/l Tris.HCl; 150 mmol/l NaCl; 1 mmol/l EDTA; 4 mmol/l NaF; 2 mmol/l Sodium ortho-vanadate; 1% Triton X-100, protease inhibitor, 5% glycerol, 1% SDS, 0.05% bromophenol blue. 5% β mercaptoethanol) and sonicated. The lysate (20 μl) were then subjected SDS-PAGE as described earlier. The blots were incubated with rabbit pFOXO1 antibody, 1:500 (Cell Signaling) or rabbit GAPDH antibody, 1:5000 (Sigma-Aldrich, St. Louis, Mo.).

SCN5A = test: mRNA analysis by qPCR, SCN5A; assay type: cell-based, rat
Method: as §1
(§2) mRNA analysis by quantitative PCR (qPCR): Cardiac myocytes were washed with PBS and lysed with lysis buffer. RNA was isolated from the myocardial tissue using RNAeasy kit from Qiagen (Qiagen, Valencia, Calif.) according to the manufacturer's instructions. Isolated RNA from these samples was treated with DNase for 15 min at room temperature (Qiagen, Valencia. CA). 100 ng of DNA-free total poly-A tail RNA (mRNA) was first subjected to synthesis of cDNA using Oligo dT primers applying SuperScript III First-Strand Synthesis System from Invitrogen (Invitrogen, Carlsbad, Calif.) according to the manufacturer's instructions. cDNA from 20 ng of total RNA was then subjected to real-time RT-PCR using predesigned taqman probe primers specific for rat Scn5a (Rn00565502), Kcnip2 (Kchip2; Rn01411451) and kcnd2 (Rn01456260) (Applied Biosystems, California). No-template controls and no-RT controls were run during each experiment to detect any RNA and/or DNA contamination. Results are expressed as fold expression of gene of interest normalized to GAPDH expression in the sample.

[1] = tested on: adult sheep atrial fibroblasts; test: Cell proliferation, WST reagent; assay type: cell-based; conditions: 1-30 μg/ml, 24 hours, SFM
Method: (§3) Wound healing experiments were performed to investigate if exogenous Gal-3 can increase myofibroblast migration in vitro (FIG. 3). Adult sheep atrial fibroblasts were cultured in 96-well plates until confluent. Before serum starvation, cells were stained with cell tracker dye and DAPI. A wound was created by scraping a semi-confluent monolayer of cells with a 1 ml pipette tip. Thereafter, cells underwent serum starvation in DMEM with […] for 6 hrs. Comparisons were made between untreated and Gal-3 treated (1 μg/ml or 10 μg ml) cells. The wound was imaged at 4 different locations at 3 different time points (days 0, 1 and 2). The size of the wound was quantified using the NIS element program by Nikon. […] Next, to investigate the effects of Gal-3 on myofibroblast proliferation, adult sheep atrial fibroblasts were treated with recombinant human Gal-3 (EMD chemicals, USA) for 24 hours in the presence of SFM. FM was included as a positive control. Cell proliferation was measured using cell proliferation reagent WST (Roche Diagnostics, USA). […] Such concentrations are in the same range used previously (Sharma et al., Circulation. 2004; 110:3121-3128) to investigate Gal-3 induced fibroblast proliferation in the cardiomyopathic heart. […] In addition, the results strongly support the therapeutic value of Gal-3 inhibitors.

[2] = tested on: adult sheep atrial fibroblasts; test: Wound healing (in vitro migration) assay; assay type: cell-based; conditions: Gal-3 vs untreated cells, days 0-2
Method: as §3

[3] = tested on: adult rat ventricular myocytes; test: Whole-cell patch clamp, sodium current (INa); assay type: cell-based
Method: as §1
Patch-clamp experiments: Whole-cell ionic currents were recorded from adult rat ventricular myocytes. All recordings were conducted at room temperature. Sodium current recordings were conducted in a low-sodium extracellular solution containing (in mM): NaCl, 10; MgCl2, 1; CaCl2, 1.8; CdCl2, 0.1; HEPES, 20; CsCl, 127.5; glucose, 11. The pipette solution contained (in mM): NaCl, 5; CsF, 135; EGTA, 10; MgATP, 5; HEPES, 5. To characterize the voltage dependence of the peak INa, single cells were held at −120 mV, and 200 msec voltage steps were applied from −90 to +30 mV in 5 mV increments. The interval between voltage steps was 3 sec. Voltage-dependence of inactivation was assessed by holding cells at various potentials from −160 to −40 mV followed by a 30 msec test pulse to −40 mV to elicit INa. Recovery from inactivation was studied by holding cells at −120 mV and applying two 20-msec test pulses (S1, S2) to −40 mV separated by increments of 2 msec to a maximum S1-S2 interval of 80 msec. The S1-S1 interval was kept constant at 3 sec.
(§4) In all experiments, cells were exposed to one of the following for 72 hrs prior to the experiment: control medium, FCM or TGF-β1.

KCNIP2 = test: mRNA analysis by qPCR, KCNIP2; assay type: cell-based, rat; conditions: 1 ng/ml, 72 hr
Method: as §2

[4] = tested on: adult rat ventricular myocytes; test: Action potential recording, current clamp; assay type: cell-based
Method: as §1
Action potentials were recorded from individual myocytes using the current clamp mode of the MultiClamp 700B amplifier after gigaseal formation and patch break. Stimulus pulses (1-2 ms duration) were generated using a World Precision Instruments DS8000 stimulator (Sarasota, Fla.). The bath solution contained (in mM): NaCl: 148, KCl: 5.4, MgCl2: 1, CaCl2 1.8, NaH2PO4: 0.4, HEPES: 15, Glucose: 5.5, pH 7.4 with NaOH. The pipette solution contained (in mM), KCl: 20, K-aspartate: 90, KH2PO4: 10, EDTA: 5.0. K2ATP: 1.9, HEPES: 5.0 and Mg2+ 7.9; pH 7.2 (KOH)

[5] = tested on: adult rat ventricular myocytes; test: Whole-cell patch clamp, transient outward potassium current (Ito); assay type: cell-based; conditions: 72-hr
Method: as §1
The extracellular solution for transient outward potassium current (Ito) contained (in mM): 136 NaCl, 4 KCl, 1.8 CaCl2, 2 MgCl2, 10 HEPES, 0.03 tetrodotoxin. 0.01 nifedipine, and 14 glucose, pH 7.35. The pipette solution contained (in mM): 135 KCl, 1 MgCl2, 10 EGTA, 10 HEPES, 5 glucose, pH 7.2. Voltage-gated outward K+ currents were evoked during 5-s depolarizing voltage steps to potentials between −40 and +60 mV from a holding potential of −70 mV; voltage steps were presented in 10 mV increments at 15 s intervals
as §4

KCND2 = test: mRNA analysis by qPCR, KCND2; assay type: cell-based, rat; conditions: 1 ng/ml, 72 hr
Method: as §2

## O=c1cc(N2CCOCC2)oc2c(-c3ccccc3)cccc12 [LY 29004, reference compound]
FOXO1; pretreated 30 min with 10 μM
  phosphorylation of FOXO1 in TGF-β1 treated cells: inhibited
SCN5A; pretreated 30 min with 10 μM
  TGF-β1-induced increase in SCN5A transcription: failed to show increased SCN5A transcription

## Gal-3: recombinant human Gal-3 (EMD chemicals, USA) added exogenously to sheep atrial fibroblasts
[1]
  number of adult sheep atrial myofibroblasts (proliferation): increased the number of adult sheep atrial myofibroblasts in a concentration-dependent manner; also recorded: increases proliferation
[2]
  rate of migration / wound healing: significantly increased the rate of migration and promoted wound healing; also recorded: increases the rate of wound healing

## TGF-β1
[3]; 1 ng/ml, 72 hours, also seen at 10 ng/ml
  maximum INa increase: about 40%
[3]; 1 ng/ml, at −40V
  more inward current compared to control medium: about 40%
[3]; 1 ng/ml, step voltages between −60 mV and −30 mV, p<0.05-0.01
  peak INa density compared to control: significantly increased the peak INa density
[3]; 72 hours, 0.001-1.0 ng/ml
  EC50 for peak inward INa density: 0.007 ng/mL
[3]; 72 hr treatment or viral overexpression
  voltage dependence of activation (m∞) and inactivation (h∞): neither the m∞ nor the h∞ curve was modified
KCNIP2
  reduction of mRNA levels of KCNIP2: 77%
[4]; 10 ng/ml, 72 hours
  action potential duration (APD): basic cycle length (BCL) dependent action potential duration (APD) prolongation
[4]; 10 ng/ml, BCL of 1000 ms
  APD30 relative to control: > 3.5 times
[4]; 10 ng/ml, BCL of 1000 ms, control 8.1±3.6
  APD30: 29.1 ± 5.6 ms
[4]; 50 ng/ml
  action potential duration / early afterdepolarizations: APD was so prolonged that some cells early afterdepolarizations (EADs)
[5]; 1 ng/ml
  peak Ito: significantly reduced the peak Ito but to a much modest level
[5]; 10 ng/ml, at 60 mV
  Ito current density, % of control levels: 57%
[5]; 10 ng/ml, at +20 mV
  reduction of Ito current density: 42%
[5]; 10 ng/ml, control 22.2±1.2
  Ito current density at 60 mV: 12.6±0.98
[5]; 10 ng/ml, voltages between +20 mV and +60 mV
  Ito compared to control: significantly lower than control
KCND2
  decrease of KCND2 expression with respect to control: 50.6%
FOXO1; 1 ng/ml
  increase in phosphorylated FOXO1 compared to control: 67%
FOXO1; 1 ng/ml, phosphorylation seen at 5 min
  exposure time of peak FOXO1 phosphorylation: 15 min
SCN5A; 1 ng/ml, 72 hr
  SCN5A transcript levels, increase: 1.73±0.26 fold
